From patent publication US8263562B2, “Peptides for preventing or treating liver damage” (priority 2006, dated 2012)

Tests used:
sera of healthy donors = test: Indirect ELISA, reactivity of the peptides to control sera of healthy donors; format: binding, human; conditions: sera of 10 healthy donors
Procedure: Control sera: obtained from healthy blood donors, who had normal blood indexes in each assay.
(§1) The reactivity of the individual peptide of the invention to sera was detected by standard indirect ELISA technology using Model DG3022 Enzyme-Linked Immunoassay Analyzer (purchased from Perkin Elmer Corporation). 10 μg of Peptide A, Peptide B, Peptide C, and Peptide Conjugate A were added respectively into the basic coating buffer (0.1 mol/L NaHCO3, 35 μl; 0.1 mol/L Na2CO3, 15 μl; H2O, 50 μl), and then transferred into the wells of polypropylene/ethylene microtiter plate, and placed at 4° C. overnight. After adding 120 μl of FCS-PBS, each well was blocked at 37° C. for 2 hours. Sera (dilution of 1:100) were then added to the wells, and incubated at 37° C. for 1 hour. Goat anti-human IgGs (dilution of 1:1000) (purchased from Sino-American Biotechnology Company, Beijing) were then added to the wells, and incubated at 37° C. for 1 hour. 50 μl of Solution A and Solution B (purchased from Beijing Kewei Reagent Company) were added to every well, placed in the dark for 5 min, and then the absorbance at 450 nm was measured.

[1] = test system: tetrachloromethane-induced liver damage; test: Tetrachloromethane-induced liver damage of mice; format: in vivo, BALB/c mice
Procedure: At the first before the first immunization, 0.05 ml CCl4 (available from Shanghai Linfen Chemical Reagent Co., Ltd.) was administered via subcutaneous injection to each mouse of all groups other than the blank control group; and the equivalent volume of physiological saline was injected for the blank control group.
Mice in the high dose group, the medium dose group and the low dose group were immunized as follows: the first immunization was performed by the following process: 1000 of Peptide A dissolved in physiological saline was mixed thoroughly with the equivalent volume of Freund's complete adjuvant, and then 0.2 ml of the resultant water-in-oil emulsion was administered via subcutaneous injection to each mouse, wherein the dosage of Peptide A contained in the emulsion was 250 μg/kg mouse body weight for the high dose group, 125 μg/kg mouse body weight for the medium dose group, and 62.5 μg/kg mouse body weight for the low dose group respectively. 14 days later, the second immunization was performed in the same dosage and manner as the first immunization except that, Freund's complete adjuvant was replaced by Freund's incomplete adjuvant. 14 days later, the third immunization was performed in the same dosage and manner as the first immunization except that, Freund's complete adjuvant was replaced by Freund's incomplete adjuvant. 14 days later, the fourth immunization was performed by the following process: 0.1 ml of Peptide A dissolved in physiological saline was administered without any adjuvants via intraperitoneal injection to each rat, wherein the dosage of Peptide A was 250 μg/kg mouse body weight for the high dose group, 125 μg/kg mouse body weight for the medium dose group, and 62.5 μg/kg mouse body weight for the low dose group respectively.
At the days of immunization for the high dose group, the medium dose group and the low dose group, starting at Day 0, the corresponding physiological saline was injected into each rat of the model group and the blank control group, for up to four times; meanwhile, the corresponding adjuvant and physiological saline were injected for the adjuvant control group, for up to four times.
At the first day before the fourth immunization, 0.05 ml CCl4 was administered via subcutaneous injection to each mouse of all groups other than the blank control group; and the equivalent volume of physiological saline was injected for the blank control group. At the second day after the fourth immunization, all of mice were sacrificed.
Just before sacrificing all mice, each rat was weighed, and then sacrificed by cervical dislocation. Then Blood was collected, before sera were isolated.

IL-10 = test: Level of IL-10 in sera of immunized mice by ELISA; format: in vivo, BALB/c Mice; conditions: first day after the fourth immunization
Procedure: (§2) BALB/c Mice, all of which are male, 6 week old, and purchased from the Laboratory Animal Center of Academy Of Military Medical Sciences, Beijing, were divided into 4 groups as follows with 5 mice in each group: (1) the control group; (2) the Peptide A group, immunized with Peptide A; (3) the Peptide B group, immunized with Peptide B; and (4) the Peptide C group, immunized with Peptide C.
(§3) 50 μl of the peptide (100 μg/μl) used in the corresponding group and 50 μl of Freund's complete adjuvant (GIBCOBRL Corp.) were mixed thoroughly with a microstirrer, and the mixture was injected into the claw pad of a mouse, thereby the first immunization was performed for each of the mice. 14 days later, booster immunization was performed in the same manner as the first immunization with 50 μl of the peptide (100 μg/μl) used in the corresponding group and 50 μl of Freund's complete adjuvant (GIBCOBRL Corp.). 14 days later, another booster immunization was performed in the same manner. 14 days later, boost immunization was performed by injecting 100 μg of the peptide dissolved in 200 μl PBS into the mouse intramuscularly. During the process of immunization, only the corresponding adjuvant and PBS were injected for the control group. At the first day after the fourth immunization, mice were sacrificed and sera were collected.
(§4) According to the specification of the manufacturer, the levels of cytokines (i.e., IL-4, IL-10, and γ-IFN) in sera of the above immunized mice were detected respectively by using IL-4 Quantikine ELASA Kit, IL-10 Quantikine ELASA Kit, and γ-IFN Quantikine ELASA Kit (all of which are purchased from R&D, Inc.).

[2] = test system: sera of patients with HBV; test: Indirect ELISA, reactivity of the peptides to sera of patients with Hepatitis B; format: binding, human; conditions: sera of 10 patients with HBV
Procedure: Sera of patients with Hepatitis B (HBV): obtained from inpatients with Hepatitis B in the Liberation Army 302 Hospital, who was positive for the surface antigen of Hepatitis B virus as assayed.
as §1

[3] = test system: Sera of Patients with HCV (anti-HCV antibody-positive sera); test: Indirect ELISA, reactivity of the peptides to anti-HCV antibody-positive sera; format: binding, human
Procedure: Anti-HCV antibody-positive sera: randomly obtained from inpatients infected with HCV in the Liberation Army 302 Hospital from 2000 to 2001.
as §1

IL-4 = test: Level of IL-4 in sera of immunized mice by ELISA; format: in vivo, BALB/c Mice; conditions: first day after the fourth immunization
Procedure: as §2, §3, §4

γ-IFN = test: Effects of the peptide on γ-IFN of rats in vivo; parameters: species or system SD Rats; conditions: four immunizations
Source text: SD Rats (body weight of each was 180 g˜220 g; half of them were male and the others were female; and they were purchased from the Animal Institute of Academy Of Military Medical Sciences) were divided randomly into 5 groups as follows with 10 rats in each group: (1) the blank control group; (2) the adjuvant control group; (3) the high dose group, immunized with Peptide A and adjuvant; (4) the low dose group, immunized with Peptide A and adjuvant; and (5) the peptide group, immunized with Peptide A only.
Rats in the high dose group and the low dose group were immunized as follows: At Day 0, the first immunization was performed by the following process: Peptide A dissolved in physiological saline was mixed thoroughly with the equivalent volume of Freund's complete adjuvant, and then 0.1 ml of the resultant water-in-oil emulsion was administered via subcutaneous injection to each rat, wherein the dosage of Peptide A contained in the emulsion was 50 μg/kg rat body weight for the high dose group and 25 μg/kg rat body weight for the low dose group respectively. […]
At the first day after the fourth immunization, rats from every group were sacrificed and splenocytes were collected. […] According to the specification of the manufacturer, the level of γ-IFN in sera of the above immunized rats was detected by using γ-IFN ELASA Quantikine ELASA Kit (purchased from R&D, Inc.).

[4] = high, medium, low dosage (250, 125, 62.5 μg/kg) with adjuvant, four immunizations, CCl4 subcutaneous
[5] = anti-HCV antibody-positive sera of 30 patients, sera dilution 1:100, 10 μg peptide coated

## GQTYTSG [Peptide A]
Sera of healthy donors
  reactivity in ELISA Assay to sera of healthy donors: negative
[1]; 250 μg/kg mouse body weight
  tetrachloromethane-induced hepatomegaly of mice: significant reduction
[1]; high dose group, 250 μg/kg with adjuvant
  pathological conditions of the liver tissues (score) versus model group: alleviated significantly
[1]; [4]
  level of glutamic-oxalacetic transaminase (SGOT) in sera versus model group: significant decrease
  level of glutamic-pyruvic transaminase (SGPT) in sera versus model group: significant decrease
IL-10
  IL-10(pg/ml serum): 27.94 ± 6.4 pg/ml serum
[2]
  reactivity in ELISA Assay to sera of patients with HBV: negative
[3]; X^2-test
  reactivity to sera of patients with HCV compared to sera of patients with HBV and healthy donors: significantly react
[3]; [5]
  Percentage of Positive Cases (%): 43%
  The Number of Positive Cases: 13
IL-4
  IL-4(pg/ml serum): 29.64 ± 4.9 pg/ml serum
γ-IFN; 50 μg/kg subcutaneous
  level of γ-IFN, Peptide A only with no adjuvant, versus same dosage of Peptide A and adjuvant: even higher
γ-IFN; Peptide A 50 or 25 μg/kg with adjuvant, or 50 μg/kg without adjuvant, FIG. 2
  γ-IFN in sera of the immunized rats compared to both of the control groups: significant increase
